According to patent publication US8871208B2, “11-β-hydroxysteroid dehydrogenase type 1 (11β-HSD1) inhibitors and uses thereof” (AbbVie Inc., priority 2009, dated 2014):
Where two headings read alike, the source gives them in different places.

How the values were obtained:
[1] = target: T1, truncated human 11β-HSD-1 enzyme (24-287AA) (Homo sapiens, UniProt P28845); test: Human 11β-HSD-1 enzymatic SPA assay; assay type: biochemical
T1 construct: truncated human 11β-HSD-1 enzyme (24-287AA); made in house; host or cells: E. coli (lysate)
T1 sequence (P28845 24-287): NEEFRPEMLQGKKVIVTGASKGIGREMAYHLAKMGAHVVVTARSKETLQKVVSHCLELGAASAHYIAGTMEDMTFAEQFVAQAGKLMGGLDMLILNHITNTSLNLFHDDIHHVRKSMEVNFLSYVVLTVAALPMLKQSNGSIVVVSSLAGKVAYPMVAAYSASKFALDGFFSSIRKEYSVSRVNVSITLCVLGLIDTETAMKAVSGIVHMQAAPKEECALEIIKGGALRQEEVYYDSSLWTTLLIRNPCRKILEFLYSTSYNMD
Procedure: (§1) The ability of test compounds to inhibit human 11β-HSD-1 enzymatic activity in vitro was evaluated in a Scintillation Proximity Assay (SPA). […] The reaction was stopped by adding a non-specific 11β-HSD inhibitor, 18β-glycyrrhetinic acid. The tritiated cortisol was captured by a mixture of an anti-cortisol monoclonal antibody and SPA beads coated with anti-mouse antibodies. The reaction plate was shaken at room temperature and the radioactivity bound to SPA beads was then measured on a β-scintillation counter. The 11β-HSD-1 assay was carried out in 96-well microtiter plates in a total volume of 220 μl. […] In order to drive the reaction in the forward direction, 1 mM G-6-P was also added. Solid compound was dissolved in DMSO to make a 10 mM stock followed by a subsequent 10-fold dilution with 3% DMSO in Tris/EDTA buffer (pH 7.4). 22 μl of titrated compounds was then added in triplicate to the substrate. Reactions were initiated by the addition of 10 μl of 0.1 mg/ml E. coli lysates overexpressing 11β-HSD-1 enzyme. After shaking and incubating plates for 30 minutes at room temperature, reactions were stopped by adding 10 μl of 1 mM glycyrrhetinic acid. The product, tritiated cortisol, was captured by adding 10 μl of 1 μM monoclonal anti-cortisol antibodies and 100 μl SPA beads coated with anti-mouse antibodies. After shaking for 30 minutes, plates were read on a liquid scintillation counter Topcount. Percent inhibition was calculated based on the background and the maximal signal. Wells that contained substrate without compound or enzyme were used as the background, while the wells that contained substrate and enzyme without any compound were considered as maximal signal. Percent of inhibition of each compound was calculated relative to the maximal signal and IC50 curves were generated. This assay was applied to 11β-HSD-2 as well, whereby tritiated cortisol and NAD^+ were used as substrate and cofactor, respectively.

human 11β-HSD-2 = target: T2, human 11β-HSD-2 (Homo sapiens, UniProt P80365); test: Human 11β-HSD-2 enzymatic SPA assay; assay type: biochemical; conditions: human enzyme, SPA
T2 sequence (P80365 1-405): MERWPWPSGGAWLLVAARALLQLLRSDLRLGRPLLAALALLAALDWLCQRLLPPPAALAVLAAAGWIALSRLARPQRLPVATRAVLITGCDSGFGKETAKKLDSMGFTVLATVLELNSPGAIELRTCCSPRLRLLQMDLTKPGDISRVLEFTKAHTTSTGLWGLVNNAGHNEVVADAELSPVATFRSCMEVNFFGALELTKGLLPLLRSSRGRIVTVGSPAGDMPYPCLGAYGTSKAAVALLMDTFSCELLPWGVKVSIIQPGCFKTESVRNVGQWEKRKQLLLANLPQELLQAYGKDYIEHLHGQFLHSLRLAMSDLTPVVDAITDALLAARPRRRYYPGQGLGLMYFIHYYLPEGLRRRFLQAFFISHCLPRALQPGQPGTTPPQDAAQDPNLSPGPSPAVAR
Procedure: as §1

SMILES: CC12CCC(N3CC(COc4ccc(C#N)cn4)C(C)(C)C3=O)(CC1)CC2 (stereo not drawn) [6-{[4,4-dimethyl-1-(4-methylbicyclo[2.2.2]oct-1-yl)-5-oxopyrrolidin-3-yl]methoxy}nicotinonitrile]
- IC50 ([1]; human enzyme, SPA): 77 nM
- IC50 (human 11β-HSD-2): 8470 nM

SMILES: CC(C)(Oc1ccc(-n2cccn2)cn1)C(=O)N[C@@H]1[C@@H]2C[C@@H]3C[C@H]1C[C@@](C(N)=O)(C3)C2 [(E)-4-[(2-methyl-2-{[5-(1H-pyrazol-1-yl)pyridin-2-yl]oxy}propanoyl)amino]adamantine-1-carboxamide]
- IC50 ([1]; human enzyme, SPA): 30 nM
- IC50 (human 11β-HSD-2): > 100000 nM

SMILES: CC(C)(C(=O)NC1C2CC3CC1CC(C(N)=O)(C3)C2)N1CCN(c2cnccn2)CC1 (stereo not drawn) [(E)-4-{[2-methyl-2-(4-pyrazin-2-ylpiperazin-1-yl)propanoyl]amino}adamantane-1-carboxamide]
- IC50 ([1]; human enzyme, SPA): 35 nM
- IC50 (human 11β-HSD-2): > 30000 nM

SMILES: CC1(C)C(=O)N(C2C3CC4CC2CC(C(N)=O)(C4)C3)CC1COc1ccc(-n2cncn2)cc1 (stereo not drawn) [(E)-4-(3,3-dimethyl-2-oxo-4-{[4-(1H-1,2,4-triazol-1-yl)phenoxy]methyl}pyrrolidin-1-yl) adamantane-1-carboxamide]
- IC50 [1]: 41 nM
- IC50 (human 11β-HSD-2): 1600 nM

SMILES: CC(C)(C(=O)NC1C2CC3CC1CC(C(=O)O)(C3)C2)N1CCC(F)C1 [(E)-4-({2-[(3R)-3-Fluoropyrrolidin-1-yl]-2-methylpropanoyl}amino)adamantane-1-carboxylic acid]
- IC50 ([1]; human enzyme, SPA): 58 nM
- IC50 (human 11β-HSD-2): > 10000 nM

SMILES: CC1(C(=O)N[C@@H]2[C@@H]3C[C@@H]4C[C@H]2C[C@@](C(N)=O)(C4)C3)CCN(Cc2cccc(Cl)c2)C1=O (stereo partly drawn) [(E)-4-(aminocarbonyl)-2-adamantyl]-1-(3-chlorobenzyl)-3-methyl-2-oxopyrrolidine-3-carboxamide]
- IC50 (human 11β-HSD-2): 10000 nM

SMILES: O=C(CN1CCN(c2ccc(C(F)(F)F)cn2)CC1)N[C@H]1[C@@H]2C[C@@H]3C[C@H]1C[C@@](F)(C3)C2 [N—[(Z)-5-fluoro-2-adamantyl]-2-{4-[5-(trifluoromethyl)pyridin-2-yl]piperazin-1-yl}acetamide]
- IC50 [1]: 82 nM
- IC50 (human 11β-HSD-2): > 10000 nM

SMILES: CC(C)(Oc1cccc(C(F)(F)F)c1)C(=O)NC1C2CC3CC1CC(C(N)=O)(C3)C2 (stereo not drawn) [(E)-4-({2-methyl-2-[3-(trifluoromethyl)phenoxy]propanoyl}amino)adamantane-1-carboxamide]
- IC50 ([1]; human enzyme, SPA): 44 nM
- IC50 (human 11β-HSD-2): 11000 nM

SMILES: CC(C(=O)NC1C2CC3CC1CC(O)(C3)C2)N1CCCCCC1 (stereo not drawn) [2-azepan-1-yl-N-[(E)-5-hydroxy-2-adamantyl]propanamide]
- IC50 ([1]; human enzyme, SPA): 92 nM
- IC50 (human 11β-HSD-2): > 10000 nM

SMILES: CC(C)(Oc1ccc(Cl)cc1)C(=O)NC1C2CC3CC1CC(Cc1nn[nH]n1)(C3)C2 (stereo not drawn) [2-(4-chlorophenoxy)-2-methyl-N-[(E)-5-(2H-tetraazol-5-ylmethyl)-2-adamantyl]propanamide]
- IC50 ([1]; human enzyme, SPA): 41 nM
- IC50 (human 11β-HSD-2): > 100000 nM

SMILES: CC(C)(C(=O)N[C@@H]1[C@@H]2C[C@@H]3C[C@H]1C[C@@](C(=O)O)(C3)C2)c1ccccc1 [(E)-4-(2-methyl-2-phenyl-propionylamino)-adamantane-1-carboxylic acid]
- IC50 ([1]; human enzyme, SPA): 82 nM
- IC50 (human 11β-HSD-2): > 10000 nM

SMILES: CC(C)(Oc1ccc(F)cc1Cl)C(=O)N[C@@H]1[C@@H]2C[C@@H]3C[C@H]1C[C@@](S(N)(=O)=O)(C3)C2 [N-[(E)-5-(aminosulfonyl)-2-adamantyl]-2-(2-chloro-4-fluorophenoxy)-2-methyl-propanamide]
- IC50 ([1]; human enzyme, SPA): 89 nM
- IC50 (human 11β-HSD-2): > 100000 nM

SMILES: CC1(C)C(=O)N(C2C3CC4CC2CC(C#N)(C4)C3)CC1COc1ccc(C#N)cn1 (stereo not drawn) [(E)-4-(4-{[(5-cyanopyridin-2-yl)oxy]methyl}-3,3-dimethyl-2-oxopyrrolidin-1-yl) adamantane-1-carbonitrile]
- IC50 ([1]; human enzyme, SPA): 29 nM
- IC50 (human 11β-HSD-2): 5270 nM

SMILES: CC1(C(=O)N[C@@H]2[C@@H]3C[C@@H]4C[C@H]2C[C@@](C(N)=O)(C4)C3)CCN(Cc2ccccc2Cl)C1=O (stereo partly drawn) [(E)-4-(aminocarbonyl)-2-adamantyl]-1-(2-chlorobenzyl)-3-methyl-2-oxopyrrolidine-3-carboxamide]
- IC50 ([1]; human enzyme, SPA): 23 nM
- IC50 (human 11β-HSD-2): 6300 nM

SMILES: CC(C)(Oc1ccc(Cl)cc1)C(=O)N[C@@H]1[C@@H]2C[C@@H]3C[C@H]1C[C@@](CC(N)=O)(C3)C2 [N-[(E)-5-(2-amino-2-oxoethyl)-2-adamantyl]-2-(4-chlorophenoxy)-2-methylpropanamide]
- IC50 ([1]; human enzyme, SPA): 43 nM
- IC50 (human 11β-HSD-2): 21000 nM

SMILES: CC1(C)C(=O)N(C2C3CC4CC2CC(C(N)=O)(C4)C3)CC1COc1ccc(C(F)(F)F)cn1 (stereo not drawn) [(E)-4-[3,3-dimethyl-2-oxo-4-({[5-(trifluoromethyl)pyridin-2-yl]oxy}methyl)pyrrolidin-1-yl]adamantane-1-carboxamide]
- IC50 ([1]; human enzyme, SPA): 39 nM
- IC50 (human 11β-HSD-2): 1360 nM

SMILES: CC(C)(Oc1ccc(Cl)cc1)C(=O)NC1C2CC3CC1CC(CS(=O)(=O)NCc1ccc(C(=O)O)cc1)(C3)C2 (stereo not drawn) [4-[({[((E)-4-{[2-(4-chlorophenoxy)-2-methylpropanoyl]amino}-1-adamantyl)methyl]sulfonyl}amino)methyl]benzoic acid]
- IC50 ([1]; human enzyme, SPA): 48 nM
- IC50 (human 11β-HSD-2): 18000 nM

SMILES: O=C(O)C12CC3CC(C1)C(NC(=O)C1(c4ccc(Cl)cc4)CCC1)C(C3)C2 (stereo not drawn) [(E)-4-{[1-(4-chloro-phenyl)-cyclobutanecarbonyl]-amino}-adamantane-1-carboxylic acid]
- IC50 ([1]; human enzyme, SPA): 43 nM
- IC50 (human 11β-HSD-2): > 10000 nM

SMILES: CCN(CC)S(=O)(=O)c1cc(Cl)ccc1OC(C)(C)C(=O)NC1C2CC3CC1CC(C(N)=O)(C3)C2 (stereo not drawn) [(E)-4-[(2-{4-chloro-2-[(diethylamino)sulfonyl]phenoxy}-2-methylpropanoyl)amino]adamantane-1-carboxamide]
- IC50 ([1]; human enzyme, SPA): 68 nM
- IC50 (human 11β-HSD-2): 65000 nM

SMILES: CN(CC1CN(C2CCCCCC2)C(=O)C1(C)C)c1ccccc1F (stereo not drawn) [1-cycloheptyl-4-{[(2-fluorophenyl)(methyl)amino]methyl}-3,3-dimethylpyrrolidin-2-one]
- IC50 ([1]; human enzyme, SPA): 73 nM
- IC50 (human 11β-HSD-2): > 10000 nM

SMILES: CC(C)(OCc1ccc(C(F)(F)F)cc1)C(=O)N[C@@H]1[C@@H]2C[C@@H]3C[C@H]1C[C@@](C(N)=O)(C3)C2 [(E)-4-[(2-methyl-2-{[4-(trifluoromethyl)benzyl]oxy}propanoyl)amino]adamantane-1-carboxamide]
- IC50 ([1]; human enzyme, SPA): 28 nM
- IC50 (human 11β-HSD-2): > 10000 nM

SMILES: O=C(CN1CCN(c2ccc(C(F)(F)F)cn2)CC1)NC1C2CC3CC1CC(F)(C3)C2 (stereo not drawn) [N-[(E)-5-fluoro-2-adamantyl]-2-{4-[5-(trifluoromethyl)pyridin-2-yl]piperazin-1-yl}acetamide]
- IC50 [1]: 140 nM
- IC50 (human 11β-HSD-2): > 10000 nM

SMILES: CC1(C)C(=O)N(C2CCCCCC2)CC1COc1ccccc1 (stereo not drawn) [1-cycloheptyl-3,3-dimethyl-4-(phenoxymethyl)pyrrolidin-2-one]
- IC50 ([1]; human enzyme, SPA): 95 nM
- IC50 (human 11β-HSD-2): > 8750 nM

SMILES: CC(C)(C(=O)N[C@@H]1[C@@H]2C[C@@H]3C[C@H]1C[C@@](C(N)=O)(C3)C2)c1ccc(-c2cccnc2)cc1 [(E)-4-{[2-methyl-2-(4-pyridin-3-ylphenyl)propanoyl]amino}adamantane-1-carboxamide]
- IC50 (human 11β-HSD-2): 44000 nM

SMILES: CC(C)(Oc1ccc(OC(F)(F)F)cc1)C(=O)NC1C2CC3CC1CC(C(N)=O)(C3)C2 (stereo not drawn) [(E)-4-({2-methyl-2-[4-(trifluoromethoxy)phenoxy]propanoyl}amino)adamantane-1-carboxamide]
- IC50 ([1]; human enzyme, SPA): 40 nM
- IC50 (human 11β-HSD-2): 2600 nM

SMILES: CC(C)(C)OC(=O)Nc1ccc(OC(C)(C)C(=O)N[C@@H]2[C@@H]3C[C@@H]4C[C@H]2C[C@@](C(N)=O)(C4)C3)cc1 [tert-butyl 4-(2-{[(E)-5-(aminocarbonyl)-2-adamantyl]amino}-1,1-dimethyl-2-oxoethoxy)phenylcarbamate]
- IC50 (human 11β-HSD-2): 37000 nM

SMILES: CC(C)(Oc1ccc(O)cc1)C(=O)N[C@@H]1[C@@H]2C[C@@H]3C[C@H]1C[C@@](C(N)=O)(C3)C2 [(E)-4-{[2-(4-hydroxyphenoxy)-2-methylpropanoyl]amino}adamantane-1-carboxamide]
- IC50 ([1]; human enzyme, SPA): 18 nM
- IC50 (human 11β-HSD-2): 35000 nM

SMILES: CC(C(=O)N[C@@H]1[C@@H]2C[C@@H]3C[C@H]1C[C@@](O)(C3)C2)N1C[C@@H](C)O[C@@H](C)C1 (stereo partly drawn) [2-[(cis)-2,6-dimethylmorpholin-4-yl]-N-[(E)-5-hydroxy-2-adamantyl]propanamide]
- IC50 ([1]; human enzyme, SPA): 110 nM
- IC50 (human 11β-HSD-2): > 10000 nM

SMILES: CC1CN(c2ccccn2)CCN1C(C)(C)C(=O)NC1C2CC3CC1CC(C(=O)O)(C3)C2 [(E)-4-({2-methyl-2-[(2S)-2-methyl-4-pyridin-2-ylpiperazin-1-yl]propanoyl}amino) adamantane-1-carboxylic acid]
- IC50 (human 11β-HSD-2): > 30000 nM
